In one test the test system is TaQ8GTB9. Briefly: Pyroxasulfone metabolizing activity based on fatty acid content in cultured rice cells. It counts as cell-based, wheat. To be noted: cultured rice cells with TaQ8GTB9 gene; 10^−7M or 10^−6M pyroxasulfone, liquid culture 14 to 17 days. The protocol:
The transgenic cultured rice cells thus prepared were used for liquid culture in the presence of pyroxasulfone. Pyroxasulfone was added to the liquid medium as an acetone solution. The final acetone concentration was 0.1%. When liquid culture was carried out, cultured rice cells transformed with KLB-279 (a plasmid comprising Act1p (rice actin 1 promoter)::sGFP::NOSt incorporated into the MCS of PalSelect R-4) were designated as the control samples. Liquid culture was carried out as described below. […]
Fatty acid was extracted using undecenoic acid (C11:1) as an internal standard. As analytical standards, Supelco FAME mix containing C14:0, C16:0, C16:1, C18:0, C18:1, C18:2, C18:3, C20:0, C22:0, C22:1, and C24:0 and other fatty acid methyl esters (C11:1, C15:0, C20:1, and C26:0) were used, and calibration curves thereof were prepared, followed by quantification. […] Quantitative and qualitative analyses were carried out as methyl esters, although fatty acid methyl esters were converted into fatty acids at the time of quantitative analysis. […]

In test [1] the test system is rice plants comprising the TaQ8GTC1-R gene introduced therein. Description: Sensitivity of rice plants comprising the TaQ8GTC1-R gene to pyroxasulfone, gellan gum medium. The format is in vivo. To be noted: strains KLB-872#3-11 and KLB-872#2-4; 10^−8 to 10^−5M. The protocol: Pyroxasulfone resistance of 2 rice plants strains (KLB-872#3-11 and KLB-872#2-4) was examined via the germination growth inhibitory test using a gellan gum medium. At the outset, Hoagland's mix and 3 g of gellan gum were suspended in 1 liter of distilled water and thoroughly dissolved therein by heating in a microwave. A fraction of the resultant (15 ml) was poured into a tubular bottle before it was cooled (30 ml was injected into the plate). Pyroxasulfone (acetone solution) was simultaneously added at the time of filling of gellan gum medium into the tubular bottle or plate, followed by thorough mixing. Rice hulls were soaked in a 50-fold diluted sodium hypochlorite solution (antiformin) (Wako) for approximately 20 minutes and then thoroughly washed with water. Sterilized seeds were soaked in distilled water and allowed to stand at 27° C. for germination (for approximately 2 days). […] Thereafter, rice seeds that were determined to have BS resistance with the use of root elongation as the indicator were transferred to gellan gum media containing pyroxasulfone (tubal bottles) at the final concentrations of 10^−8, 10^−7, 10^−6, and 10^−5M, respectively. […] These samples were grown at 27° C. under fluorescent light illumination (14 hours of a light period and 10 hours of a dark period) for 4 to 5 days, and the plant heights were then measured. […]

The structures appear in SMILES notation.

Consider `Cn1nc(C(F)(F)F)c(CS(=O)(=O)C2=NOC(C)(C)C2)c1OC(F)F` [Pyroxasulfone, 3-[5-(difluoromethoxy)-1-methyl-3-(trifluoromethyl)pyrazol-4-ylmethylsulfonyl]-4,5-dihydro-5,5-dimethyl-1,2-oxazole], for which, in the test on TaQ8GTB9, the “pyroxasulfone metabolizing activity (C15:0 and VLCFA contents)” value is reported as “no pyroxasulfone metabolizing activity”. In test [1], the sensitivity to pyroxasulfone entry is on record as “sensitivity equivalent to that of wild-type plants”.

For the origin of these results see patent publication US11198710B2, “Transgenic plant having herbicide resistance” (priority 2016, dated 2021).
